From US20230124862A1, “BISMUTH THIOL COMPOUNDS AND COMPOSITIONS AND METHODS OF TREATING MICROBIAL CO-INFECTIONS” (Microbion Corporation, priority 2020, published 2023)
≈ marks a conversion by molar mass, not a printed value. Where “and” joins values, the source holds several entries; their conditions need not be identical. Identical values can stand only once. Like-named read-outs stand apart in the source and are kept apart here.

Legend:
[1] = system: S. aureus; conditions: S. aureus MMX 101 (ATCC 29213); cited from earlier work
[2] = system: S. aureus; test: Broth microdilution MIC (Example 11); type: cell-based, Staphylococcus aureus; conditions: Staphylococcus aureus, ATCC 29213 / MSSA, S. aureus MMX 101 (ATCC 29213); QC; MSSA; read-out: MIC
[3] = system: Enterococcus spp.; test: Broth microdilution MIC (Example 11); type: cell-based, E. faecalis, E. faecium; conditions: Lev^R Cip^R Ery^R, read-out: MIC
[4] = system: Anaerobes (Bacteroides fragilis, Clostridium difficile); test: Agar dilution MIC (Example 11); type: cell-based; conditions: read-out: MIC
Description: The susceptibility of anaerobic bacteria was determined by agar dilution using Brucella Agar (BD/BBL; Lot No. 5237692) supplemented with 5 μg/mL hemin (Sigma, St. Louis, Mo.; Lot No. 108K1088), 1 μg/mL Vitamin K1 and 5% (v/v) laked sheep blood (Cleveland Scientific, Bath, Ohio; Lot No. 322799).
Agar Dilution MIC Testing (Anaerobic Bacteria and Gonococci): MIC values for anaerobic bacteria were determined using a reference agar dilution method as described by CLSI (6). Organisms were grown at 35° C. in the Bactron II Anaerobic Chamber (Shel Lab, Cornelius, Oreg.) for approximately 48 hr prior to the assay. Drug dilutions and drug-supplemented agar plates were prepared manually per CLSI (6). The plates were allowed to stand at room temperature for 1 hr to allow the agar surface to dry and pre-reduced for approximately 1 hr in the anaerobe chamber prior to inoculation. Each isolate was suspended to the equivalent of a 0.5 McFarland standard in Brucella broth using a turbidity meter (Dade Behring MicroScan, West Sacramento, Calif.). Each bacterial cell suspension was then diluted 1:10 in Brucella broth and transferred to wells in a stainless steel replicator block which was used to inoculate the test plates. The prongs on the replicator deliver approximately 1-2 μl of inoculum to an agar surface. The resulting inoculum spots contained approximately 1×10^5 CFU/spot. After the inoculum dried, the inoculated drug-supplemented agar plates and no drug growth control plates were incubated at 35° C. for 42-48 hr in the anaerobe chamber. The MIC was read per CLSI guidelines (6).

[5] = system: vancomycin-intermediate Staphylococcus aureus (VISA); test: Broth microdilution MIC (Example 12); type: cell-based; conditions: Staphylococcus aureus, NRS 13 / VISA, all isolates except NRS 13; read-out: MIC values
[6] = system: Pseudomonas aeruginosa strain PA01; test: Bacterial killing curves with and without CF patient sputum; type: cell-based; conditions: tobramycin 1 μg/mL, 10% CF sputum, most time points
[7] = system: P. aeruginosa; test: Checkerboard FIC/FICI assay; type: cell-based, Pseudomonas aeruginosa; conditions: Tobramycin in combination with BisEDT
[8] = system: Burkholderia cepacia complex; test: Checkerboard FIC/FICI assay; type: cell-based, Burkholderia spp.
[9] = system: M. abscessus complex; test: MIC testing of CF isolates; type: cell-based, Mycobacterium abscessus
[10] = system: beta-hemolytic streptococci; test: Broth microdilution MIC (Example 11); type: cell-based, S. pyogenes, S. agalactiae; conditions: ERY^R CC^R, read-out: MIC
[11] = type: physicochemical
[12] = system: Enterobacteriaceae; conditions: E. coli MMX 102 (ATCC 25922); CLSI QC ranges shown in parenthesis; cited from earlier work
[13] = system: P. aeruginosa and A. baumannii; conditions: P. aeruginosa MMX 103 (ATCC 27853); CLSI QC ranges shown in parenthesis; cited from earlier work
[14] = system: Gram-positive aerobic bacteria (S. aureus, MRSA, CA-MRSA); test: MIC90 against 150 clinical isolates of Gram-positive aerobic bacteria; type: cell-based; conditions: S. aureus (50 isolates)
[15] = P. aeruginosa 6322, one value per panel row C-G
[16] = P. aeruginosa 6977, by checkerboard
[17] = P. aeruginosa 7745, by checkerboard
[18] = P. aeruginosa 9108, by checkerboard
[19] = B. cepacia 1793, Tobramycin in combination with BisEDT, by checkerboard
[20] = non-reversing and total heat flow

For `Cc1onc(-c2ccccc2)c1C(=O)N[C@@H]1C(=O)N2[C@@H]1SC(C)(C)[C@@H]2C(=O)O` [Oxacillin], the “CLSI QC range of MIC” value [1] is listed as “(0.12-0.25) μg/mL”.

For `CCC[C@@H]1C[C@@H](C(=O)N[C@@H]([C@H]2O[C@H](SC)[C@H](O)[C@@H](O)[C@H]2O)[C@H](C)Cl)N(C)C1` [clindamycin, reference compound], the MIC [2] was 0.12 mg/L (≈ 0.282 µM), the MIC ([3]; E. faecalis MMX 8960, VRE) was > 32 mg/L and the MIC ([3]; E. faecalis MMX 8961, VRE) was > 32 mg/L. For the same compound, the MIC ([3]; E. faecalis MMX 8962, VRE) was > 32 mg/L, the MIC ([3]; E. faecium MMX 485, VRE vanA) was > 32 mg/L and the MIC ([3]; E. faecium MMX 752, VRE vanA) was > 32 mg/L. The MIC ([4]; Bacteroides fragilis, ATCC25285, B. fragilis MMX 123 (ATCC 25285), QC) was 1 mg/L (≈ 2.35 µM), the MIC ([4]; C. difficile MMX 4381 (ATCC 700057), QC, CC^1) was 4 mg/L (≈ 9.41 µM) and the MIC ([4]; C. difficile MMX 5680 (NCTC 13336), ribotype 027, CC^1 MET^R) was 4 mg/L (≈ 9.41 µM). The MIC ([4]; C. difficile MMX 5681 (NCTC 13307), ribotype 012, CC^R) was > 64 mg/L, the MIC ([4]; C. difficile MMX 8272, ribotype 255, CC^1) was 4 mg/L (≈ 9.41 µM) and the MIC ([4]; C. difficile MMX 8279, ribotype 005, CC^R) was > 64 mg/L. The MIC ([4]; C. difficile MMX 8281, ribotype 010, CC^R) was > 64 mg/L and the MIC [5] was > 4 mg/L.

With `NC[C@H]1O[C@H](O[C@H]2[C@H](O)[C@@H](O[C@H]3O[C@H](CO)[C@@H](O)[C@H](N)[C@H]3O)[C@H](N)C[C@@H]2N)[C@H](N)C[C@@H]1O` [tobramycin, Tobramycin, reference compound] the “CFU higher in cultures with sputum vs without” value [6] was 0.5-1 log CFU/mL, the FICB [7, 15] was 1 and the MICB [7, 15] was 128 µg/mL. For the same compound, the FICB [7, 16] was 2, the MICB [7, 16] was 256 µg/mL and the FICB [7, 17] was 1. For the same compound, the MICB [7, 17] was 0.5 µg/mL, the FICB [7, 18] was 1 and the MICB [7, 18] was 0.0005 µg/mL. For the same compound, the FICB ([8]; B. cenocepacia 548, FIC of Tobramycin (Drug B) in combination with BisEDT) was 0.25 and 0.5, the MICB ([8]; B. cenocepacia 548, MIC of Tobramycin (Drug B) in combination with BisEDT) was 8 µg/mL and 16 µg/mL and the FICB ([8]; B. cenocepacia 813, FIC of Tobramycin (Drug B) in combination with BisEDT) was 0.5 and 1. The FICB [8, 19] was 0.5 and 1, the MICB [8, 19] was 8 µg/mL and 16 µg/mL and the FICB ([8]; B. multivorans 1795, FIC of Tobramycin (Drug B) in combination with BisEDT) was 1. For the same compound, the MICB ([8]; B. multivorans 1795, MIC of Tobramycin (Drug B) in combination with BisEDT) was >256 µg/mL.

`CC[C@H]1OC(=O)[C@H](C)[C@@H](O[C@H]2C[C@@](C)(OC)[C@@H](O)[C@H](C)O2)[C@H](C)[C@@H](O[C@@H]2O[C@H](C)C[C@H](N(C)C)[C@H]2O)[C@](C)(OC)C[C@@H](C)C(=O)[C@H](C)[C@@H](O)[C@]1(C)O` [CLR] gave an MIC ([9]; M. abscessus/massiliense complex (AMT0068-40)) of 1 µg/mL (≈ 1.34 µM), an MIC ([9]; M. abscessus/massiliense complex (AMT0119-7)) of 1 µg/mL (≈ 1.34 µM) and an MIC ([9]; M. abscessus/massiliense complex (AMT0493-2), AMK R) of 2 µg/mL (≈ 2.67 µM). For the same compound, the MIC ([9]; M. abscessus/massiliense complex (AMT01130-8)) was 1 µg/mL (≈ 1.34 µM), the MIC ([9]; M. abscessus/massiliense complex (AMT1539)) was 2 µg/mL (≈ 2.67 µM) and the MIC ([9]; M. abscessus/massiliense complex (ATCL119977), Macrolide R (inducible)) was >32^1 ^ μg/mL.

With `C[C@H]1COc2c(N3CCN(C)CC3)c(F)cc3c(=O)c(C(=O)O)cn1c23` [Levofloxacin, reference compound] the MIC [2] was 0.12 mg/L (≈ 0.332 µM), the MIC ([3]; E. faecalis MMX 8960, VRE) was 32 mg/L (≈ 88.6 µM) and the MIC ([3]; E. faecalis MMX 8961, VRE) was 64 mg/L (≈ 177 µM). For the same compound, the MIC ([3]; E. faecalis MMX 8962, VRE) was 64 mg/L (≈ 177 µM), the MIC ([3]; E. faecium MMX 485, VRE vanA) was > 64 mg/L and the MIC ([3]; E. faecium MMX 752, VRE vanA) was > 64 mg/L. For the same compound, the MIC ([10]; Streptococcus agalactiae, S. agalactiae MMX 3741) was 0.25 mg/L (≈ 0.692 µM), the MIC ([10]; Streptococcus pyogenes, S. pyogenes MMX 5091) was 0.5 mg/L (≈ 1.38 µM) and the MIC [5] was > 4 mg/L.

For `C1C[S][Bi]([S]CC[S][Bi]2[S]CC[S]2)[S]1` [X-ray amorphous BisEDT], the “Temperature cycling DSC: broad, weak endotherm (approximate peak max)” value ([11]; Cycle 1, heat to 85° C.) was “Broad, weak endotherm at 75 °C”, the “Temperature cycling DSC: small endotherm (peak max)” value ([11]; Cycle 4, heat to 130° C., 10° C./min) was “Small endotherm at 112 °C (peak max)” and the “Temperature cycling DSC: sharp exotherm (peak max)” value ([11]; Cycle 7, heat to 200° C., 10° C./min) was “Sharp exotherm at 160 °C (peak max)”. For the same compound, the “DSC: broad endotherm (peak max)” value ([11]; conventional DSC) was “Broad endotherm at 64 °C (peak max)”, the “DSC: sharp strong exotherm (peak max)” value ([11]; conventional DSC) was “Sharp strong exotherm at 168 °C” and the “DSC: small endotherm (peak max)” value ([11]; conventional DSC) was “Small endotherm at 112 °C (peak max)”. The “DSC: small exotherm (peak max)” value ([11]; conventional DSC) was “Small exotherm at 145 °C (peak max)”, the “Modulated DSC: broad weak endotherm (peak max)” value [11, 20] was “Broad weak endotherm at 47 °C” and the “Modulated DSC: heat flow fluctuations” value [11, 20] was “Heat flow fluctuations above 140 °C”. For the same compound, the “Modulated DSC: small endotherm (peak max)” value [11, 20] was “Small endotherm at 104 °C (peak max)”, the “Modulated DSC: small exotherm (peak max)” value [11, 20] was “Small exotherm at 134 °C (peak max)” and the “Modulated DSC: Tg (midpoint of step change)” value ([11]; reversing heat flow) was “Tg at 101 °C (midpoint of step change)”. The “Modulated DSC: ΔCp” value ([11]; reversing heat flow, at Tg) was “(ΔCp 0.3 J/(g*K)”.

In the case of `CC(C)(O/N=C(\C(=O)N[C@@H]1C(=O)N2C(C(=O)[O-])=C(C[n+]3ccccc3)CS[C@H]12)c1csc(N)n1)C(=O)O` [Ceftazidime], the MIC [2] is reported as 8 mg/L (≈ 14.6 µM), the MIC ([3]; E. faecalis MMX 8960, VRE) is reported as > 32 mg/L and the MIC ([3]; E. faecalis MMX 8961, VRE) is reported as > 32 mg/L. For the same compound, the MIC ([3]; E. faecalis MMX 8962, VRE) was > 32 mg/L, the MIC ([3]; E. faecium MMX 485, VRE vanA) was > 32 mg/L and the MIC ([3]; E. faecium MMX 752, VRE vanA) was > 32 mg/L. For the same compound, the “MIC, CLSI QC range” value [12] was “(0.06-0.5) μg/mL”, the “MIC, CLSI QC range” value [13] was “(1-4) μg/mL” and the “CLSI QC range of MIC” value [1] was “(4-16) μg/mL”.

With `C[C@@H](O)[C@H]1C(=O)N2C(C(=O)O)=C(SCCN=CN)C[C@H]12` [IPM] the MIC90 ([14]; CA-MRSA) was 2 mg/L (≈ 6.68 µM), the MIC90 ([14]; MRSA) was >8 mg/L and the MIC90 ([14]; MSSA) was 0.03 mg/L (≈ 0.1 µM).
